From patent US7968721B2, “Large-scale synthesis of selective androgen receptor modulators” (University of Tennessee Research Foundation, priority 2003, dated 2011)

Columns and labels:
androgen receptor = system: androgen receptor
Excerpt: Assays to determine whether the compounds of the present invention are AR agonists or antagonists are well known to a person skilled in the art. For example, AR agonistic activity can be determined by monitoring the ability of the SARM compounds to maintain and/or stimulate the growth of AR containing tissue such as prostate and seminal vesicles, as measured by weight. AR antagonistic activity can be determined by monitoring the ability of the SARM compounds to inhibit the growth of AR containing tissue.

spermatogenesis = conditions: weekly intramuscular injections, men receiving therapy; cited from earlier work

Row | Compound | action at the androgen receptor in vivo (androgen receptor) | anabolic and androgenic effects in vivo (androgen receptor) | men with azoospermia or severe oligospermia (less than 3 million sperm per ml) and infertility (spermatogenesis) [%]
1 | CC(=O)Nc1ccc(OC[C@](C)(O)C(=O)Nc2ccc([N+](=O)[O-])c(C(F)(F)F)c2)cc1 [Compound (1), 3-[4-(acetylamino)phenoxy]-2-Hydroxy-2-methyl-N-[3trifluoromethyl-4-nitro-phenyl)-proprionamide] | partial agonist | strong anabolic and weakly androgenic effects | 
2 | CCCCCCC(=O)O[C@H]1CC[C@H]2[C@@H]3CCC4=CC(=O)CC[C@]4(C)[C@H]3CC[C@]12C [testosterone enanthate] |  |  | 98
